Source: the Kinase Knowledgebase extract (Sharma et al. 2016)

The compounds below were run against MAPK14 (human) (UniProt Q16539) (assay: Inhibition of MAPK14 Kinase Activity).
Chain of MAPK14 (human) (Q16539 whole entry, looked up): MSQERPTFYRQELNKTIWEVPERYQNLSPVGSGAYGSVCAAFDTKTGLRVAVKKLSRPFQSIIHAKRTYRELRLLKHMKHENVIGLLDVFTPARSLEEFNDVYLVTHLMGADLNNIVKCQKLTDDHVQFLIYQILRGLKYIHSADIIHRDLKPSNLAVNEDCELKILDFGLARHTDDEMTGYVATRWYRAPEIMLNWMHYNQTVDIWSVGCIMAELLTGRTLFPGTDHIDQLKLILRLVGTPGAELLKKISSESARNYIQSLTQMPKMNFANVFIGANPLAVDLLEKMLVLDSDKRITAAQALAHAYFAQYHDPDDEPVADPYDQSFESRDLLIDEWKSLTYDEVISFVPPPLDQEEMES

| Structure (SMILES) | IC50 [µM] |
| --- | --- |
| Cc1cc(C)cc(OC2CCC(=O)N(C3C(Cl)CCCC3Cl)C2)c1 (stereo not given) | ≤ 10 |
| O=C1CCC(Cc2ccc(F)cc2F)CN1c1c(Cl)cc(NCc2ccccn2)cc1Cl (stereo not given) | ≤ 10 |
| CC(=O)Nc1cc(Cl)c(N2CC(Sc3ccc(F)cc3F)CCC2=O)c(Cl)n1 (stereo not given) | ≤ 10 |
| O=C1CCC(Cc2ccc(C(F)(F)F)cc2)CN1c1c(Cl)cccc1Cl (stereo not given) | ≤ 10 |
| O=C1CCC(Cc2ccc(Cl)cc2)CN1C1C(Cl)CCCC1Cl (stereo not given) | ≤ 10 |
| O=C1CCC(Cc2ccc3ccccc3c2)CN1C1C(Cl)CCCC1Cl (stereo not given) | ≤ 10 |
| O=C(Cc1ccccc1)Nc1ccc(Cl)c(N2CC(Cc3ccc(F)cc3F)OCC2=O)c1Cl (stereo not given) | ≤ 10 |
| O=C1CCC(Sc2ccccc2Cl)CN1c1c(Cl)csc1Cl (stereo not given) | ≤ 10 |
| O=C1CSC(Cc2ccc(F)cc2)CN1c1c(Cl)cccc1Cl (stereo not given) | ≤ 10 |
| Cc1cc(NC(=O)OC(C)(C)C)cc(C)c1N1CC(Cc2ccc(F)cc2F)CCC1=O (stereo not given) | ≤ 10 |
| O=C1CCC(Sc2ccccc2F)CN1c1c(Cl)cncc1Cl (stereo not given) | ≤ 10 |
| NC1CC(Cl)C(N2CC(Sc3ccc(F)cc3F)CCC2=O)C(Cl)C1 (stereo not given) | ≤ 10 |
| CC(C)(C)OC(=O)Nc1ccc(Cl)c(N2CC(Cc3ccc(F)cc3F)CCC2=O)c1 (stereo not given) | ≤ 10 |
| O=C1CCC(Sc2ccc(F)cc2F)CN1c1c(Cl)cncc1Cl (stereo not given) | ≤ 10 |
| O=C(Cc1ccccc1)Nc1ccc(Cl)c(N2CC(Cc3ccc(F)cc3F)COC2=O)c1Cl (stereo not given) | ≤ 10 |
| O=C1CCC(Sc2ccc(F)cc2F)CN1c1c(Cl)sc(O)c1Cl (stereo not given) | ≤ 10 |
| O=C1CCC(Oc2ccccc2F)CN1c1c(Cl)cncc1Cl (stereo not given) | ≤ 20 |
| Cc1ccc(OC2CCC(=O)N(c3c(Cl)cncc3Cl)C2)cc1 (stereo not given) | ≤ 10 |
| O=C1CCC(Oc2ccc(F)cc2F)CN1c1c(Cl)cc(CO)nc1Cl (stereo not given) | ≤ 10 |
| O=C1CCC(Oc2ccccc2Cl)CN1C1C(Cl)CCCC1Cl (stereo not given) | ≤ 10 |
| Cc1ccccc1OC1CCC(=O)N(c2c(Cl)cccc2Cl)C1 (stereo not given) | ≤ 10 |
| CC(C)(C)OC(=O)N(CCO)c1cc(Cl)c(N2CC(Cc3ccc(F)cc3F)CCC2=O)c(Cl)c1 (stereo not given) | ≤ 10 |
| O=C1CCC(Cc2ccc(F)cc2F)CN1c1c(Cl)cc(N2C(=O)CCCC2=O)cc1Cl (stereo not given) | ≤ 10 |
| O=C1CCC(Oc2cc(F)cc(F)c2)CN1c1c(Cl)cccc1Cl (stereo not given) | ≤ 10 |
| O=C1CCC(Sc2ccc(F)cc2F)CN1c1c(Cl)ccc(CO)c1Cl (stereo not given) | ≤ 10 |
| O=C1CCC(Oc2ccc(F)cc2)CN1c1c(Cl)ccnc1Cl (stereo not given) | ≤ 10 |
| Cc1cc(N)cc(C)c1N1CC(Cc2ccc(F)cc2F)CNC1=O (stereo not given) | ≤ 10 |

| Structure (SMILES) | IC50 [µM] |
| --- | --- |
| O=C1CCC(Cc2cccc3ccccc23)CN1c1c(Cl)csc1Cl (stereo not given) | ≤ 10 |
| O=C(Cc1ccccc1)Nc1cc(Cl)c(N2CC(Cc3ccc(F)cc3F)OCC2=O)c(Cl)c1 (stereo not given) | ≤ 10 |
| C[C@@H]1C[C@@H](Cc2ccc(F)cc2F)CN(c2c(Cl)cccc2Cl)C1=O | ≤ 10 |
| Cc1nc[nH]c1CNc1cc(Cl)c(N2CC(Cc3ccccc3)CCC2=O)c(Cl)c1 (stereo not given) | ≤ 10 |
| O=C1CCC(Oc2ccccc2)CN1c1c(Cl)cccc1Cl (stereo not given) | ≤ 10 |
| O=C1CCC(Cc2cc(Cl)cc(Cl)c2)CN1c1c(Cl)cccc1Cl (stereo not given) | ≤ 10 |
| CC(=O)NC1CC(Cl)C(N2CC(Oc3ccc(F)cc3F)CCC2=O)C(Cl)C1 (stereo not given) | ≤ 10 |
| O=C1COC(Cc2cc(F)cc(F)c2)CN1c1c(Cl)cccc1Cl (stereo not given) | ≤ 10 |
| O=C1SCC(Cc2cc(Cl)cc(Cl)c2)CN1c1c(Cl)cccc1Cl (stereo not given) | ≤ 10 |
| O=C1CCC(Oc2ccc(F)cc2F)CN1c1c(Cl)ccc(O)c1Cl (stereo not given) | ≤ 10 |
| O=C(Cc1ccccc1)Nc1ccc(Cl)c(N2CC(Cc3ccc(F)cc3F)CNC2=O)c1Cl (stereo not given) | ≤ 10 |
| COc1ccc(SC2CCC(=O)N(C3C(Cl)CCCC3Cl)C2)cc1 (stereo not given) | ≤ 10 |
| Cc1ccc(CC2CCC(=O)N(c3c(Cl)cncc3Cl)C2)cc1 (stereo not given) | ≤ 10 |
| Cc1ccccc1SC1CCC(=O)N(c2c(Cl)csc2Cl)C1 (stereo not given) | ≤ 10 |
| O=C1CCC(Oc2ccc(F)cc2F)CN1c1c(Cl)cnc(O)c1Cl (stereo not given) | ≤ 10 |
| CNc1cnc(Cl)c(N2CC(Cc3ccc(F)cc3F)CCC2=O)c1Cl (stereo not given) | ≤ 10 |
| Cc1ccc(OC2CCC(=O)N(c3c(Cl)cncc3Cl)C2)c(C)c1 (stereo not given) | ≤ 10 |
| Cc1cccc(C)c1N1CC(Cc2ccccc2OCC(C)C)CCC1=O (stereo not given) | ≤ 10 |
| Nc1cc(Cl)c(N2CC(Cc3ccc(F)cc3F)COC2=O)c(Cl)c1 (stereo not given) | ≤ 10 |
| O=C1CCC(Sc2ccc(Cl)cc2Cl)CN1c1c(Cl)cccc1Cl (stereo not given) | ≤ 10 |
| CN1CC(Cc2cc(F)cc(F)c2)CN(c2c(Cl)cccc2Cl)C1=O (stereo not given) | ≤ 10 |
| O=C1CSC(Cc2ccc(F)cc2F)CN1c1c(Cl)ccc(CO)c1Cl (stereo not given) | ≤ 10 |
| O=C1CCC(Sc2ccc(F)cc2F)CN1C1C(Cl)CCC(O)C1Cl (stereo not given) | ≤ 10 |
| CN(C)CCN(C(=O)OC(C)(C)C)c1cc(Cl)c(N2CC(Cc3ccc(F)cc3F)CCC2=O)c(Cl)c1 (stereo not given) | ≤ 10 |
| Nc1ccc(Cl)c(N2CC(Cc3ccc(F)cc3F)OCC2=O)c1Cl (stereo not given) | ≤ 10 |
| O=C1OCC(Cc2cc(F)cc(F)c2)CN1c1c(Cl)cccc1Cl (stereo not given) | ≤ 10 |
| O=C1CCC(Oc2ccccc2)CN1c1c(Cl)csc1Cl (stereo not given) | ≤ 10 |

| Structure (SMILES) | IC50 [µM] |
| --- | --- |
| Cc1ccc(CC2CN(c3c(Cl)cccc3Cl)C(=O)CS2)cc1 (stereo not given) | ≤ 10 |
| O=C1NCC(Cc2ccc(Cl)cc2)CN1c1c(Cl)cccc1Cl (stereo not given) | ≤ 10 |
| O=C1COC(Cc2cc(Cl)cc(Cl)c2)CN1c1c(Cl)cccc1Cl (stereo not given) | ≤ 10 |
| O=C1CCC(Sc2cc(Cl)cc(Cl)c2)CN1c1c(Cl)cncc1Cl (stereo not given) | ≤ 10 |
| O=C(CCCO)Nc1cc(Cl)c(N2CC(Cc3ccc(F)cc3F)CCC2=O)c(Cl)c1 (stereo not given) | ≤ 10 |
| COc1ccc(SC2CCC(=O)N(c3c(Cl)cncc3Cl)C2)cc1 (stereo not given) | ≤ 10 |
| O=C1OCC(Cc2ccc(F)cc2F)CN1c1c(Cl)ccc(CO)c1Cl (stereo not given) | ≤ 10 |
| CN(C(=O)Cc1ccccc1)c1cc(Cl)c(N2CC(Cc3ccc(F)cc3F)CCC2=O)c(Cl)c1 (stereo not given) | ≤ 10 |
| O=C1CCC(Sc2ccc(Cl)cc2Cl)CN1c1c(Cl)cncc1Cl (stereo not given) | ≤ 10 |
| O=C1CCC(Cc2ccccc2)CN1c1ccccc1Cl (stereo not given) | ≤ 10 |
| O=C1COC(Cc2ccc(F)cc2)CN1c1c(Cl)cccc1Cl (stereo not given) | ≤ 10 |
| CC(=O)Nc1ccc(Cl)c(N2CC(Cc3ccc(F)cc3F)CCC2=O)c1Cl (stereo not given) | ≤ 10 |
| O=C(NCc1ccccc1CC1CCC(=O)N(c2c(Cl)cccc2Cl)C1)Nc1ccccc1C(F)(F)F (stereo not given) | ≤ 10 |
| Cc1cccc(C)c1N1C[C@@H](N(CCO)S(=O)(=O)c2ccc(F)cc2F)CCC1=O | ≤ 10 |
| CC(=O)Nc1cnc(Cl)c(N2CC(Sc3ccc(F)cc3F)CCC2=O)c1Cl (stereo not given) | ≤ 10 |
| COc1ccccc1CC1CN(C)C(=O)N(c2c(Cl)cccc2Cl)C1 (stereo not given) | ≤ 10 |
| CC(=O)N1CC(=O)N(c2c(Cl)cccc2Cl)CC1Cc1ccc(F)cc1F (stereo not given) | ≤ 10 |
| O=C1CCC(Oc2ccc(Cl)cc2)CN1c1c(Cl)cccc1Cl (stereo not given) | ≤ 10 |
| COc1ccc(SC2CCC(=O)N(c3c(Cl)ccnc3Cl)C2)cc1 (stereo not given) | ≤ 10 |
| CN(C)CCNc1cc(Cl)c(N2CC(Cc3ccccc3F)CCC2=O)c(Cl)c1 (stereo not given) | ≤ 10 |
| Cc1ccc(CC2CCC(=O)N(c3c(Cl)ccnc3Cl)C2)c(C)c1 (stereo not given) | ≤ 10 |
| N[C@@H](Cc1ccc(O)cc1)C(=O)Nc1cc(Cl)c(N2CC(Cc3ccc(F)cc3F)CCC2=O)c(Cl)c1 (stereo not given in full) | ≤ 10 |
| Cc1cccc(C)c1N1CC(Cc2ccccc2OCC(=O)O)CCC1=O (stereo not given) | ≤ 10 |
| Nc1ncc(Cl)c(N2CC(Sc3ccc(F)cc3F)CCC2=O)c1Cl (stereo not given) | ≤ 10 |
| Cc1ccc(CC2CN(c3c(Cl)cccc3Cl)C(=O)CO2)c(C)c1 (stereo not given) | ≤ 10 |
| O=C1CCC(C(=NO)c2ccc(F)cc2F)CN1c1c(Cl)cccc1Cl (stereo not given) | ≤ 10 |
